According to US20260297060A1, “COMPOUNDS FOR THE DEGRADATION OF MUTANT BRAF” (C4 THERAPEUTICS, INC., priority 2023, published 2026):
Like-named read-outs stand apart in the source and are kept apart here.

Test: Pharmacokinetics after 21 days dosing in the efficacy study (plasma, tumor and brain concentrations; plasma AUC at steady state), Example 14
Format: in vivo, female BALB/c nude mice
Conditions: for Concentration in Brain / concentration at 24 h: 24 h; for Concentration in Brain: BQL: below the lower limit of quantitation; for concentration at 4 h / concentration at 24 h / concentration at 0.25 h / concentration at 0.5 h / concentration at 1 h / concentration at 2 h / concentration at 8 h / concentration at 10 h: mouse, po
Description: Agents were tested in the A375 human melanoma xenografts. Compound 26 and Compound 141 were administered to BALB/c nude mice bearing A375 tumors from PG-DO and dosed via PO twice a day (BID) or third a day (TIP) or dosed P daily (QD) from PG-D. Dabrafenib was administered to BALB/c nude mice bearing A375 tumors from PG-D1 and dosed via P daily (QD). Compound 26 was dosed at 1.5 mg/kg (QD), 2 mg/kg (TID), 3 mg/kg (BID), 6 mg/kg (QD) and 10 mg/kg (BID) for 21 days. Compound 141 was dosed at 0.75 mg/kg (BID), 1 mg/kg (TID), 1.5 mg/kg (BID), 3 mg/kg (QD) and 5 mg/kg (BID) for 21 days. Dabrafenib was dosed at 100 mg/kg for 21 days. This study was non-GLP.
The plasma samples were collected at predetermined time points for PK analysis. For non-termination plasma collection: the blood samples were collected into the 1.5 mL Eppendorf tubes containing 3 μL of 0.5 M EDTA-K2. And then the anticoagulant blood samples were centrifuged at 2,500 g at 4° C. for 15 minutes. For termination plasma collection: the mice was euthanized at predetermined time points post the treatment, the blood samples were collected into the 1.5 mL Eppendorf tubes containing 15 μL of 0.5 M EDTA-K2. And then the anticoagulant blood samples were centrifuged at 2,500 g at 4° C. for 15 minutes. The plasma samples were separated into 2 aliquots. The 1st was used for PK analysis, and the 2nd was served as backup.
The tumor samples were collected at predetermined time points for PK and WB analysis. The tumor was dissected out and split into 3 parts. The 1st part was used for PK analysis, the 2nd part was used for WB analysis and the last one was used as backup for the study. The samples were transferred into pre-labeled tubes and quickly froze in liquid nitrogen within 2 minutes after dissection. The samples were stored at −80° C. before analysis.
The brain samples were collected at predetermined time points for PK and potential WB analysis. The brain was dissected out and split into 3 parts (left brain, right brain upper and right brain lower), the left brain was used for PK, the right brain upper was used for WB and the last one was used as the backup for the study. The samples were transferred into pre-labeled tubes and quickly froze in liquid nitrogen within 2 minutes after dissection. The samples were stored at −80° C. before analysis.
The harvested plasma and tumor samples were processed for pharmacokinetics analysis by LC-MS/MS with a concentration range of 1.00-1,000 ng/mL for dabrafenib in plasma and 0.0500-50 ng/mL in tumor and brain homogenate, 5.00-10,000 ng/mL for Compound 141 in plasma and 0.200~200 ng/ml in tumor and brain homogenate. 20.0~20,000 ng/mL for Compound 26 in plasma and 0.5~500 ng/mL for Compound 26 tumor and brain homogenate.
Dabrafenib, Compound 26 and Compound 141 in female BALB/c nude mice plasma (K2-EDTA), tumor and brain homogenate were analyzed by LC-MS/MS (Triple Quad 6500+ Low Mass). Verapamil (5 ng/mL) in acetonitrile: methanol (V: V=95:5) was used as the internal standard for Dabrafenib, Compound 26 and Compound 141 in plasma. Verapamil (0.5 ng/mL) in acetonitrile: methanol (V: V=95:5) was used as the internal standard for Dabrafenib, Compound 26 and Compound 141 in tumor and brain homogenate.
An aliquot of 10 μL unknown sample, calibration standard, quality control, dilute quality control, single blank and double blank samples were added to the 96-well plate. Each sample for Dabrafenib, Compound 26 and Compound 141 in plasma (except the double blank) was quenched with 200 μL IS respectively (double blank sample was quenched with 200 μL ACN: MeOH (V: V=95:5)); each sample for Dabrafenib, Compound 26 and Compound 141 in tumor and brain(except the double blank) was quenched with 100 μL IS respectively (double blank sample was quenched with 100 μL ACN: MeOH (V: V=95:5)); and then the mixture was vortex-mixed for 5 min at 800 rpm and centrifuged for 15 min at 3220 g (4000 rpm), 4° C. […]

[1] = plasma, 0.75 mg/kg p.o. BID x 21 days, mean ± SEM
[2] = plasma, 0.75 mg/kg p.o. BID x 21 days, mean ± SEM, read-out: Concentration in Plasma
[3] = plasma, 1 mg/kg p.o. TID x 21 days, mean ± SEM
[4] = plasma, 1 mg/kg p.o. TID x 21 days, mean ± SEM, read-out: Concentration in Plasma
[5] = plasma, 1.5 mg/kg p.o. BID x 21 days, mean ± SEM
[6] = plasma, 1.5 mg/kg p.o. BID x 21 days, mean ± SEM, read-out: Concentration in Plasma
[7] = plasma, 3 mg/kg p.o. QD x 21 days, mean ± SEM
[8] = plasma, 3 mg/kg p.o. QD x 21 days, mean ± SEM, read-out: Concentration in Plasma
[9] = plasma, 5 mg/kg p.o. BID x 21 days, mean ± SEM
[10] = plasma, 5 mg/kg p.o. BID x 21 days, mean ± SEM, read-out: Concentration in Plasma
[11] = tumor, 1 mg/kg p.o. TID x 21 days, mean ± SEM, read-out: Concentration in Tumor
[12] = tumor, 1.5 mg/kg p.o. BID x 21 days, mean ± SEM, read-out: Concentration in Tumor

With CCN(C)S(=O)(=O)Nc1ccc(F)c(Oc2ccc3ncn(C4CC5(CCN(C6CC7(C6)CN(c6cc8c(cc6F)c(N6CCC(=O)NC6=O)nn8C)C7)CC5)C4)c(=O)c3c2)c1C#N (stereo not drawn) [Compound 141, 6-[2-cyano-3-[[ethyl(methyl)sulfamoyl]amino]-6-fluoro-phenoxy]-3-[7-[2-[3-(2,4-dioxohexahydropyrimidin-1-yl)-5-fluoro-1-methyl-indazol-6-yl]-2-azaspiro[3.3]heptan-6-yl]-7-azaspiro[3.5]nonan-2-yl]-4-oxo-quinazoline] the “Concentration in Brain” value (0.75 mg/kg p.o. BID x 21 days) was “BQL”, the “Concentration in Brain” value (1 mg/kg p.o. TID x 21 days) was “BQL” and the “Concentration in Brain” value (1.5 mg/kg p.o. BID x 21 days) was “BQL”. For the same molecule, the “Concentration in Brain” value (3 mg/kg p.o. QD x 21 days) was “BQL”, the concentration at 4 h (brain, 0.75 mg/kg p.o. BID x 21 days, mean ± SEM, read-out: Concentration in Brain) was 10.7 ± 2.04 ng/g and the concentration at 4 h (brain, 1 mg/kg p.o. TID x 21 days, mean ± SEM, read-out: Concentration in Brain) was 12.4 ± 2.79 ng/g. It also gave a concentration at 4 h (brain, 1.5 mg/kg p.o. BID x 21 days, mean ± SEM, read-out: Concentration in Brain) of 10.1 ± 1.79 ng/g, a concentration at 4 h (brain, 3 mg/kg p.o. QD x 21 days, mean ± SEM, read-out: Concentration in Brain) of 22.9 ± 2.7 ng/g and a concentration at 4 h (brain, 5 mg/kg p.o. BID x 21 days, mean ± SEM, read-out: Concentration in Brain) of 51.4 ± 21.7 ng/g. For the same molecule, the concentration at 24 h (brain, 5 mg/kg p.o. BID x 21 days, read-out: Concentration in Brain) was 2.25 ng/g, the concentration at 0.25 h [1] was 369 ± 64.7 ng/mL and the concentration at 0.5 h [1] was 732 ± 139 ng/mL. For the same molecule, the concentration at 1 h [1] was 1140 ± 226 ng/mL, the concentration at 2 h [1] was 1280 ± 277 ng/mL and the concentration at 4 h [2] was 663 ± 79 ng/mL. It also gave a concentration at 8 h [1] of 432 ± 45.3 ng/mL, a concentration at 10 h [1] of 343 ± 34.9 ng/mL and a concentration at 24 h [2] of 10.8 ± 2.44 ng/mL. For the same molecule, the concentration at 0.25 h [3] was 950 ± 130 ng/mL, the concentration at 0.5 h [3] was 1750 ± 165 ng/mL and the concentration at 1 h [3] was 1930 ± 416 ng/mL. The concentration at 2 h [3] was 1760 ± 262 ng/mL, the concentration at 4 h [4] was 850 ± 185 ng/mL and the concentration at 8 h [3] was 780 ± 53.4 ng/mL. The concentration at 10 h [3] was 676 ± 42.5 ng/mL, the concentration at 24 h [4] was 33.7 ± 4.48 ng/mL and the concentration at 0.25 h [5] was 702 ± 91.7 ng/mL. It also gave a concentration at 0.5 h [5] of 1360 ± 270 ng/mL, a concentration at 1 h [5] of 1940 ± 211 ng/mL and a concentration at 2 h [5] of 2120 ± 241 ng/mL. It also gave a concentration at 4 h [6] of 950 ± 365 ng/mL, a concentration at 8 h [5] of 523 ± 19.7 ng/mL and a concentration at 10 h [5] of 328 ± 12.4 ng/mL. The concentration at 24 h [6] was 11.2 ± 2.61 ng/mL, the concentration at 0.25 h [7] was 1580 ± 247 ng/mL and the concentration at 0.5 h [7] was 2850 ± 361 ng/mL. It also gave a concentration at 1 h [7] of 5130 ± 799 ng/mL, a concentration at 2 h [7] of 5290 ± 555 ng/mL and a concentration at 4 h [8] of 2430 ± 222 ng/mL. It also gave a concentration at 8 h [7] of 869 ± 101 ng/mL, a concentration at 10 h [7] of 617 ± 41.7 ng/mL and a concentration at 24 h [8] of 12.2 ± 1.4 ng/mL. For the same molecule, the concentration at 0.25 h [9] was 2930 ± 226 ng/mL, the concentration at 0.5 h [9] was 6300 ± 457 ng/mL and the concentration at 1 h [9] was 6340 ± 1160 ng/mL. It also gave a concentration at 2 h [9] of 6130 ± 1280 ng/mL, a concentration at 4 h [10] of 3730 ± 1140 ng/mL and a concentration at 8 h [9] of 3260 ± 243 ng/mL. The concentration at 10 h [9] was 2370 ± 37.1 ng/mL, the concentration at 24 h [10] was 38.9 ± 5.18 ng/mL and the concentration at 4 h (tumor, 0.75 mg/kg p.o. BID x 21 days, mean ± SEM, read-out: Concentration in Tumor) was 160 ± 24.9 ng/g. It also gave a concentration at 24 h (tumor, 0.75 mg/kg p.o. BID x 21 days, read-out: Concentration in Tumor) of 33 ng/g, a concentration at 4 h [11] of 390 ± 107 ng/g and a concentration at 24 h [11] of 14.3 ± 4.44 ng/g. For the same molecule, the concentration at 4 h [12] was 317 ± 61.6 ng/g, the concentration at 24 h [12] was 6.7 ng/g and the concentration at 4 h (tumor, 3 mg/kg p.o. QD x 21 days, mean ± SEM, read-out: Concentration in Tumor) was 909 ± 165 ng/g. It also gave a concentration at 24 h (tumor, 3 mg/kg p.o. QD x 21 days, read-out: Concentration in Tumor) of 3.01 ng/g, a concentration at 4 h (tumor, 5 mg/kg p.o. BID x 21 days, mean ± SEM, read-out: Concentration in Tumor) of 1300 ± 471 ng/g and a concentration at 24 h (tumor, 5 mg/kg p.o. BID x 21 days, read-out: Concentration in Tumor) of 79.3 ng/g.
